Data as given in patent publication US8853227B2, “Methotrexate adjuvants to reduce toxicity and methods for using the same” (Tosk, Incorporated, priority 2008, dated 2014).

Tests used:
[1] = Mouse Study I (protection from MTX-induced weight loss, LPS/MTX model); format: in vivo, C57BL/6 mice; details: 10 or 30 mg/kg ip 3 hr before and after MTX, LPS+MTX; p<0.004 (10 mg/kg), p<0.0005 (30 mg/kg) vs LPS+MTX
Description: C57BL/6 mice (10 animals/treatment group) were dosed on Day 1 with LPS (5 μg, i.p.). On Day 2, the animals were treated with 200 mg/kg MTX+10 or 30 mg/kg TK-112690 3 hr before and 3 hr after the MTX treatment. On Day 3, the animals were dosed MTX 100 mg/kg+10 or 30 mg/kg TK±3 hr. On day 8, the Day 8-Day 1 weight was determined and results subject to ANOVA. Group 1=saline alone, Group 2=MTX alone, Group 3=LPS alone, Group 4=MTX+LPS, Group 5=10 mg/kg TK-112690+MTX+LPS or Group 6=30 mg/kg TK-112690+MTX+LPS.
This mouse model is modified from a published procedure (de Koning et al., Int Immunol 18: 941 (2006)). Mice are treated on day one with a single intraperitoneal (ip) dose of lipopolysaccharide (LPS), followed by two consecutive days with 200 and 100 mg/kg ip methotrexate, respectively. Controls include saline alone for days 1, 2, and 3, saline on day 1 plus MTX on days 2 and 3 and LPS on day one with saline injection on days 2 and 3. Experimental groups are given LPS on day one and 10 or 30 mg/kg, TK-112690, a representative 2,2′-anhydropyrimidine test article, ip 3 hours before, and 3 hours after, methotrexate injection on days 2 and 3. Animal weights are measured every day after the first injection with experiment termination five days after the second methotrexate injection (day 8). Weight loss is representative of MTX-induced toxicity, and one aspect of MTX-induced mucositis. […]

CCRF-CEM cells = assay: Cell Culture Study I (MTX cytotoxicity, alamarBlue); format: cell-based, human
Description: In this study, CCRF-CEM cells purchased from ATCC were cultured and then 12 tubes containing approximately 10^6 cells each treated for 72 hours with media (Group1), MTX 0.03 μM (Group2), MTX+Leucovorin 1 μM (Group3), MTX+Leucovorin 10 μM (Group4), MTX+Leucovorin 100 μM (GroupS), MTX+TK-112690 1 μM (Group6), MTX+TK-112690 10 μM (Group7) and MTX+TK-112690 100 μM (Group8). […] Viability was measured as percent reduction of alamarBlue absorbance.
The tumor cell line CCR-CEM (human T-cell acute lymphoblastic leukemia) is obtained from American Type Culture Collection (CRL-1593.2) and cultured in accordance with the product information sheet with the following exceptions: 55.3 cm^2 Petri dishes are used instead of 75 cm^2 culture flasks, and 1% penicillin-streptomycin solution (HyClone SV30010) and 1% GlutaMAX™ (Gibco 35050) are added to the culture medium.
TK-112690, the representative 2,2′-anhydropyrimidine test article, is dissolved in 40% DMSO, sterile filtered then diluted with sterile distilled water to obtain initial working solutions of 10, 100 and 1000 μM. In testing, a 100 fold dilution is made in culture media to give final assay concentrations of 0.1, 1.0 and 10.0 μM. MTX (SAFC Biosciences M8407) is dissolved in sterile distilled water and 5 N NaOH then sterile filtered. The final pH of the stock solution is 7.8 and working solutions are made with sterile distilled water for final assay concentrations of 30, 3.0, 0.3, 0.03 and 0.003 μM. Leucovorin (Sigma F-7878) is dissolved in sterile distilled water, sterile filtered and diluted with sterile distilled water for final assay concentrations of 0.1, 1.0 and 10.0 μM.
Aliquots of 100 μL of cell suspension are plated in 96 well microtiter plates (Corning costar 3595) and placed in an atmosphere of 5% CO2 at 37° C. (Fisher Scientific Isotemp 3500 CO2 Incubator). After 24 hours, 100 μL of growth medium [RPMI-1640 w/L-glutamine (Cambrex 12-702Q) fortified with sodium pyruvate (HyClone SH30239.01), fetal bovine serum (SAFC Biosciences 12107C) and HEPES buffer (Gibco 15630)] and 2 μL of test solution or vehicle are added respectively per well and the plates incubated for an additional 72 hour incubation. MTX is evaluated at concentrations of 0.003, 0.03, 0.30 and 3.0 μM alone or in combination with either a 2,2′-anhydropyrimidine test article or Leucovorin at concentrations of 0.1, 1.0, 10.0 μM. At the end of incubation, the efficacy of anti-cell proliferation is determined by optical absorbance at A=570 and 600 nm [Spectramax 250 (Molecular Devices)] in accordance with the standard alamarBlue™ (Biosource) protocol.
Group 1 is the cell control (media treated). Group 2 corresponds to cells treated with 0.03 μM MTX. Group 3 are cells treated with 1.0 μM Leucovorin. Group 4 are cells treated with 0.1 μM Leucovorin. […]

CCRF-CEM human tumors = assay: Mouse Study IV (xenograft with CCRF-CEM implants); format: in vivo, SCID mice; details: MTX 7.5 mg/kg/injection + TK-112690 30 mg/kg ±3 hrs ip; day 27; p=1
Description: In this study, n=10 SCID mice per dose group were treated with CCRF-CEM human tumors and the tumors allowed to grow to a size of approximately 100 mg. Then the animals were treated by intraperitoneal (ip) injection with either control 20% DMSO/80% PBS (1×/day)×5 days (Group 1), MTX 7.5 mg/kg/injection (1×/day)×5 days (Group 2) or MTX 7.5 mg/kg/inj. (1×/day)×5 days+TK-112690 30 mg/kg/inj.±3 hrs (group 3). The Figure provides tumor sizes in each of the 3 groups on Day 27 of the study.
A xenograft study was performed to analyze the effect of TK-112690. administration on the in vivo efficacy of MTX against a human cancer. Human CCRF-CEM (T-ALL) cells were implanted subcutaneously into SCID mice. Tumor volumes were recorded on a regular basis, and once tumors had become established, treatment was given. […] All treatments were given ip, and TK-112690 was give 3 hours prior to and 3 hours after MTX administration.

Cc1cn2c(nc1=O)O[C@H]1[C@H](O)[C@@H](CO)O[C@H]12 [TK-112690, 2,2′-anhydro-5-methyluridine]
protection from MTX-induced weight loss (Day 8-Day 1 mean weight change) [1]: highly significant
cell viability, MTX+TK-112690 versus MTX alone (CCRF-CEM cells; 0.03 μM MTX + TK-112690, 72 hours, p<0.844, 0.918, 1.000): not different
cell viability, test article alone versus control (CCRF-CEM cells; without MTX, 72 hours): not statistically different than control
tumor volume, MTX+TK-112690 versus MTX (CCRF-CEM human tumors): not significantly different
